From patent US20030216398A1, “Soluble beta amyloid precursor protein secretion promoters” (priority 2002, published 2003) come the findings set out here.

The term melting point denotes the temperature, or range, at which the solid turns liquid.

Each structure is given as a SMILES string. Structures can show the parent of a compound that is named as a salt.

Regarding `COc1ccc(C(=O)N2CCC(Nc3ccccc3C(C)C)c3ccccc32)cc1OC.Cl` (stereo not drawn), the melting point fell in the range of 93 to 96 °C.

Take `COc1ccc(C(=O)N2CCC(Nc3ccccc3Cl)c3ccc(Cl)cc32)cc1OC` (stereo not drawn) (as salt: hydrochloride) [Example 51, 7-Chloro-N-(2-chlorophenyl)-1-(3,4-dimethoxybenzoyl)-1,2,3,4-tetrahydro-4-quinolinamine Hydrochloride]: the melting point lay in the range of 74 to 76 °C.

For `COc1ccc(C(=O)N2c3ccccc3[C@H](N(C)c3ccccc3)C[C@@H]2C)cc1OC` (racemic) [Example 28, cis-1-(3,4-Dimethoxybenzoyl)-N,2-dimethyl-N-phenyl-1,2,3,4-tetrahydro-4-quinolinamine], the melting point lay in the range of 180 to 181 °C.

As to `C[C@H]1C[C@@H](Nc2ccccc2)c2ccccc2N1C(=O)c1ccncc1` (relative stereo) (hydrate or solvate) [Example 3, cis-1-Isonicotinoyl-2-methyl-N-phenyl-1,2,3,4-tetrahydro-4-quinolinamine], the melting point is 210 °C.

On to `C[C@H]1C[C@@H](Nc2ccccc2)c2ccccc2N1C(=O)c1ccncc1` (relative stereo) [Example 3, cis-1-Isonicotinoyl-2-methyl-N-phenyl-1,2,3,4-tetrahydro-4-quinolinamine], for which the melting point is 121 °C.

As to `C[C@H]1C[C@@H](Nc2ccccc2)c2ccccc2N1C(=O)c1ccccn1` (relative stereo) [Example 4, cis-2-Methyl-N-phenyl-1-(2-pyridinylcarbonyl)-1,2,3,4-tetrahydro-4-quinolinamine], the melting point worked out at 157 °C.

`C[C@H]1C[C@H](Nc2ccccc2)c2ccccc2N1C(=O)c1ccc2c(c1)OCO2` (relative stereo) [Example 7, Trans-1-(1,3-Benzodioxol-5-ylcarbonyl)-2-methyl-N-phenyl-1,2,3,4-tetrahydro-4-quinolinamine]: the melting point is 175 °C.

`COc1cc(C(=O)N2c3ccccc3[C@@H](Nc3ccccc3)C[C@@H]2C)cc(OC)c1OC` (relative stereo) [Example 8, Trans-2-Methyl-N-phenyl-1-(3,4,5-trimethoxybenzoyl)-1,2,3,4-tetrahydro-4-quinolinamine]: the melting point came to 205 °C.

As to `COc1ccc(C(=O)N2c3ccccc3[C@@H](Nc3cccc(C)n3)C[C@@H]2C)cc1OC` (relative stereo) [Example 13, Trans-1-(3,4-Dimethoxybenzoyl)-2-methyl-N-(6-methyl-2-pyridinyl)-1,2,3,4-tetrahydro-4-quinolinamine], the melting point was in the range of 184 to 186 °C.

The compound `C[C@H]1C[C@H](Nc2ccccc2)c2ccccc2N1C(=O)c1ccc(Br)o1` (relative stereo) [Example 41, trans-1-(5-Bromo-2-furoyl)-2-methyl-N-phenyl-1,2,3,4-tetrahydro-4-quinolinamine] yielded a melting point of 117 to 118 °C.

The compound `C[C@H]1C[C@@H](Nc2ccccc2)c2ccccc2N1C(=O)c1ccc(-c2ccc(Cl)cc2)cc1` (relative stereo) [Example 52, cis-1-[(4′-Chloro[1,1′-biphenyl]-4-yl)carbonyl]-2-methyl-N-phenyl-1,2,3,4-tetrahydro-4-quinolinamine] had a melting point of 193 to 194 °C.

Compound `CC1CC(Nc2ccccc2)c2ccccc2N1C(=O)c1ccc2c(c1)OCO2` (stereo not drawn) [Example 5, cis-1-(1,3-Benzoxol-5-ylcarbonyl)-2-methyl-N-phenyl-1,2,3,4-tetrahydro-4-quinolinamine] had a melting point of 175 °C.

Regarding `COc1cc(C(=O)N2c3ccccc3C(Nc3ccccc3)CC2C)cc(OC)c1OC` (stereo not drawn) [Example 6, cis-2-Methyl-N-phenyl-1-(3,4,5-trimethoybenzoyl)-1,2,3,4-tetrahydro-4-quinolinamine], the melting point came to 300 °C.

The compound `COc1ccc(C(=O)N2c3ccccc3C(Nc3ccc(Br)cc3)CC2C)cc1OC` (stereo not drawn) [Example 12, N-(4-Bromophenyl)-1-(3,4-dimethoxybenzoyl)-2-methyl-1,2,3,4-tetrahydro-4-quinolinamine] had a melting point of 173 to 175 °C.

The compound `COc1ccc(C(=O)N2CCC(Nc3ccc(Cl)cc3)c3ccccc32)cc1OC` (stereo not drawn) [Example 14, N-(4-chlorophenyl)-1-(3,4-dimethoxybenzoyl)-1,2,3,4-tetrahydro-4-quinolinamine] displayed a melting point of 131 °C.

`COc1ccc(C(=O)N2CCC(Nc3ccccc3)c3ccccc32)cc1OC` (stereo not drawn) [Example 17, 1-(3,4-Dimethoxybenzoyl)-N-phenyl-1,2,3,4-tetrahydro-4-quinolinamine] yielded a melting point of 155 to 156 °C.

Compound `COc1ccc(C(=O)N2CCC(N(C)c3ccccc3)c3ccccc32)cc1OC` (stereo not drawn) [Example 18, 1-(3,4-Dimethoxybenzoyl)-N-methyl-N-phenyl-1,2,3,4-tetrahydro-4-quinolinamine] yielded a melting point of 143 to 144 °C.

Turning to `COc1ccc(C(=O)N2CCC(Oc3ccc(Br)cc3)c3ccccc32)cc1OC` (stereo not drawn) [Example 19], the melting point is 56 to 57 °C.

The compound `COc1ccc(C(=O)N2CCN(Cc3ccccc3)c3ccccc32)cc1OC` [Example 20, 1-Benzyl-4-(3,4-dimethoxybenzoyl)-1,2,3,4-tetrahydroquinoxaline] returned a melting point of 111 to 112 °C.

On to `COc1ccc(C(=O)N2CCC(Nc3ccc4ncccc4c3)c3ccccc32)cc1OC` (stereo not drawn) [Example 21, 1-(3,4-Dimethoxybenzoyl)-N-(6-quinolinyl)-1,2,3,4-tetrahydro-4-quinolinamine], for which the melting point lay within 116 to 118 °C.

With `COc1ccc(C(=O)N2CCC(Nc3ccccn3)c3ccccc32)cc1OC` (stereo not drawn) [Example 22, 1-(3,4-Dimethoxybenzoyl)-N-(2-pyridinyl)-1,2,3,4-tetrahydro-4-quinolinamine], the melting point lay within 156 to 157 °C.

As to `COc1ccc(C(=O)N2CCC(Nc3ccccc3Cl)c3ccccc32)cc1OC` (stereo not drawn) [Example 23, N-(2-Chlorophenyl)-1-(3,4-dimethoxybenzoyl)-1,2,3,4-tetrahydro-4-quinolinamine], the melting point was 92 to 93 °C.

`COc1ccc(C(=O)N2CCC(Nc3ccccc3F)c3ccccc32)cc1OC` (stereo not drawn) [Example 24, 1-(3,4-Dimethoxybenzoyl)-N-(2-fluorophenyl)-1,2,3,4-tetrahydro-4-quinolinamine] had a melting point of 133 to 134 °C.

As for `COc1ccc(C(=O)N2CCC(N(C)c3ccccc3C)c3ccccc32)cc1OC` (stereo not drawn) [Example 25, 1-(3,4-Dimethoxybenzoyl)-N-methyl-N-(2-methylphenyl)-1,2,3,4-tetrahydro-4-quinolinamine], the melting point was 170 to 171 °C.

`COc1ccc(C(=O)N2CCC(Nc3c(Cl)cccc3Cl)c3ccccc32)cc1OC` (stereo not drawn) [Example 26, N-(2,6-Dichlorophenyl)-1-(3,4-dimethoxybenzoyl)-1,2,3,4-tetrahydro-4-quinolinamine] registered a melting point of 154 to 156 °C.

Take `COc1ccc(C(=O)N2c3ccccc3C(Nc3ccccc3Cl)CC2C)cc1OC` (stereo not drawn) [Example 27, N-(2-Chlorophenyl)-1-(3,4-dimethoxybenzoyl)-2-methyl-1,2,3,4-tetrahydro-4-quinolinamine]: the melting point fell in the range of 148 to 150 °C.

For the compound `COc1ccc(C(=O)N2CCC(Nc3ccc4c(c3)OCO4)c3ccccc32)cc1OC` (stereo not drawn) [Example 31, N-(1,3-Benzodioxol-5-yl)-1-(3,4-dimethoxybenzoyl)-1,2,3,4-tetrahydro-4-quinolinamine], the melting point lay in the range of 135 to 136 °C.
